# Test results: patent US4499019A, “N-(1-allyl-2-pyrrolidylmethyl)-2,3-dimethoxy-5-sulfamoylbenzamide and derivatives thereof and method for treating hot flushes associated with natural or surgical menopause” (Societe D'Etudes Scientifiques et Industrielles de l'Ile de …, priority 1976, dated 1985)
# Where two headings read alike, the source gives them in different places.
# How the values were obtained:
# male rats = details: rat, in vivo, sc
# Protocol: The compound was administered subcutaneously to male rats. The criterion for the cataleptic state was the immobility of the animal for 30 seconds with its front limbs apart and arranged carefully on cubes of wood 4 centimeters high, thus placing the animal in an unaccustomed and uncomfortable position.
# [1] = Semichronic toxicity in the Wistar rat, oral, four weeks; details: in vivo, doses 0.5, 1 and 2 g/kg per 24 hours, read-out: relatively or completely non-toxic up to (dose)
# Protocol: In the rat the compound was administered in doses of 0.5, 1 and 2 g/kg per 24 hours.
# female hamster = assay: Effects on ovary and mammary glands in the female hamster; assay type: in vivo
# Excerpt: (§1) Experiments have been carried out on both the female rat and the female hamster. The changes produced by the compound at the level of the ovary and of vaginal cytology make it possible to predict a point of impact located at the level of the hypothalamo hypophyso-ovarian axis.
# [2] = system: psycho neuro-vegetative syndrome of the natural or surgical menopause
# Protocol: A patient, suffering considerable neuro-vegetative symptoms in the natural menopause mainly with attacks of sweating and hot flushes (30-40 a day), was treated orally with N-(1'-allyl-2'-pyrrolidylmethyl)-2,3-dimethoxy-5-sulfamoylbenzamide at a dosage of 100 mg per day. […] The following is a comparison of the patient's neuro-vegetative symptoms before treatment with treatment after eight days:
# The patient was treated orally with N-(1'-allyl-2'-pyrrolidylmethyl)-2,3-dimethoxy-5-sulfamoylbenzamide at a dosage rate of 100 mg per day.
# A patient had considerable neuro-vegetative symptoms in the natural menopause with mainly hot flushes and headaches.
# The patient was treated orally with N-(1'-allyl-2'-pyrrolidylmethyl)-2,3-dimethoxy-5-sulfamoylbenzamide at a dosage rate of 100 mg per day for twenty days.
# The patient was treated again in the same manner as previously at a dosage rate of 100 mg per day for twenty days.
# A patient suffered neuro-vegetative symptoms in the surgical menopause with mainly hot flushes which set in following a hysterectomy for a fibroid tumor.
# Wistar rat = assay: Acute toxicity in the Wistar rat (oral administration); assay type: in vivo
# Excerpt: (§2) The acute toxicity of the compound was studied in the Swiss mouse with both parenteral and oral administration and in the Wistar rat with oral administration.
# However, the LD0 is approximately 1.5 g/kg.
# [3] = system: psycho neuro-vegetative symptoms of the menopause; assay: Double-blind study against placebo on the psycho neuro-vegetative symptoms of the menopause; assay type: in vivo, human; details: forty observations, double blinding against placebo
# Excerpt: The action of the compound on the psycho neuro-vegetative symptoms of the menopause has been studied with double blinding against placebo.
# female rat = assay: Effects on ovary, vaginal cytology and mammary glands in the female rat; assay type: in vivo
# Excerpt: as §1
# [4] = system: psycho neuro-vegetative syndrome of the natural or surgical menopause; assay: Clinical results in patients with psycho neuro-vegetative syndrome of the menopause (243 patients); assay type: in vivo, human
# patients = details: human, in vivo
# [5] = Acute toxicity in the Swiss mouse (parenteral and oral administration); details: in vivo
# Excerpt: as §2
# [6] = female hamster, subcutaneous injections, 3.5 and 10 mg/kg
# [7] = Example 18, 100 mg per day oral, after eight days, before: Severe
# [8] = Example 19, 100 mg per day oral, eight days, before: Severe
# [9] = Example 20, 100 mg per day oral for twenty days, before: Severe
# [10] = Example 21, 100 mg per day oral for twenty days, before: Severe
# [11] = Example 21, 100 mg per day oral for twenty days, before: Yes
# [12] = Example 22, 100 mg per day oral for twenty days, before: Medium
# [13] = Example 22, 100 mg per day oral for twenty days, before: Yes
# [14] = Example 23, 100 mg per day oral for twenty days, before: Severe
# [15] = Example 23, 100 mg per day oral for twenty days, before: Yes
# [16] = female rat, subcutaneous injections, 3.5 and 10 mg/kg
smiles,measurement,setting,value
"C=CCN1CCCC1CNC(=O)c1cc(S(N)(=O)=O)cc(OC)c1OC (stereo not drawn) [N-(1'-allyl-2'-pyrrolidylmethyl)-2,3-dimethoxy-5-sulfamoylbenzamide]",cataleptic action,male rats,virtually no cataleptic action
same,animals made cataleptic,male rats; 200 mg/kg,30%
same,NOAEL at 672 h,[1],1000 mg/kg/day
same,corpora lutea of the ovary,female hamster; [6],caused the corpora lutea of the ovary to be maintained
same,progesterone secretion by the maintained corpora lutea,female hamster; [6],secreted increased quantities of progesterone
same,development of the mammary glands,female hamster; hamster,development of the mammary glands was noted
same,secretory activity of the mammary glands,"female hamster; hamster, at the highest doses",signs of secretory activity
same,results of the treatment,"[2]; 100 mg per day oral, first treatment, Examples 19, 20, 22",excellent
same,"Headaches, After Treatment","[2]; Example 18, 100 mg per day oral, after eight days, before: Medium",None
same,"Hot Flushes: Frequency, After Treatment",[2]; [7],None
same,"Hot Flushes: Intensity, After Treatment",[2]; [7],None
same,"Irritability, After Treatment",[2]; [7],Slight
same,"Anxiety, After Treatment","[2]; Example 18, 100 mg per day oral, after eight days, before: Slight",None
same,flashes and sweating attacks,"[2]; Example 18, 100 mg per day oral, after two days (before: hot flushes 30-40 a day)",8 per day
same,"Anxiety, After Treatment","[2]; Example 19, 100 mg per day oral, eight days, before: Medium",Slight
same,"Headaches, After Treatment",[2]; [8],Slight
same,"Hot Flushes: Frequency, After Treatment",[2]; [8],None
same,"Hot Flushes: Intensity, After Treatment",[2]; [8],None
same,"Irritability, After Treatment",[2]; [8],Slight
same,"Headaches, After Treatment","[2]; Example 20, 100 mg per day oral for twenty days, before: Medium",None
same,"Hot Flushes: Frequency, After Treatment",[2]; [9],None
same,"Hot Flushes: Intensity, After Treatment",[2]; [9],None
same,"Irritability, After Treatment",[2]; [9],Slight
same,"Hot Flushes: Frequency, Twenty Days After Treatment",[2]; [10],None
same,"Hot Flushes: Intensity, Twenty Days After Treatment",[2]; [10],None
same,"Abdominal Meteorism, Twenty Days After Treatment",[2]; [11],No
same,"Anxiety, Twenty Days After Treatment",[2]; [11],No
same,"Hot Flushes: Frequency, Twenty Days After Treatment",[2]; [12],None
same,"Hot Flushes: Intensity, Twenty Days After Treatment",[2]; [12],None
same,"Anxiety, Twenty Days After Treatment",[2]; [13],No
same,"Irritability, Twenty Days After Treatment",[2]; [13],No
same,reappearance of symptoms after end of second treatment,"[2]; Example 23, 100 mg per day oral for twenty days",appeared again five days after termination of the second treatment
same,"Hot Flushes: Frequency, Twenty Days After Treatment",[2]; [14],Slight
same,"Hot Flushes: Intensity, Twenty Days After Treatment",[2]; [14],Slight
same,"Anxiety, Twenty Days After Treatment",[2]; [15],No
same,"Depression, Twenty Days After Treatment",[2]; [15],No
same,"Irritability, Twenty Days After Treatment",[2]; [15],Yes
same,"Libido Change, Twenty Days After Treatment",[2]; [15],Yes
same,LD50,"Wistar rat; Wistar rat, oral",toxicity of the compound was so low that the LD50 could not be determined
same,LD0,"Wistar rat; rat, in vivo, po",approximately 1.5 g/kg
same,LD100,"Wistar rat; rat, in vivo, po",> 4000 mg/kg
same,difference between compound and placebo,[3],very significant difference
same,change to the uterus,female rat; female rat,little change to the uterus
same,vaginal cycle,female rat; female rat,blocked in dioestrus
same,vaginal epithelium,female rat; female rat,"primsmatic, indicating the predominance of progesterone over estrogens"
same,corpora lutea of the ovary,female rat; [16],caused the corpora lutea of the ovary to be maintained
same,progesterone secretion by the maintained corpora lutea,female rat; [16],secreted increased quantities of progesterone
same,"susceptibility, rat versus hamster",female rat; mammary gland development,The rat appeared to be more susceptible than the hamster
same,development of the mammary glands,female rat; rat,development of the mammary glands was noted
same,secretory activity of the mammary glands,"female rat; rat, at the highest doses",signs of secretory activity
same,Vulvar Irritation: Percentage Very Good & Good,[4]; 32 cases,84%
same,"Vulvar Irritation: Results, Average & Zero (number of cases)",[4]; 32 cases,5
same,"Vulvar Irritation: Results, Very Good & Good (number of cases)",[4]; 32 cases,27
same,Hot Flushes: Percentage Very Good & Good,[4]; 211 cases,73.9%
same,"Hot Flushes: Results, Average & Zero (number of cases)",[4]; 211 cases,55
same,"Hot Flushes: Results, Very Good & Good (number of cases)",[4]; 211 cases,156
same,effectiveness excellent or good in hot flushes,[4]; cases of hot flushes,74 % of the cases
same,vulvar irritation eliminated,[4]; cases of vulvar irritation,84 % of the cases
same,"effective in psycho neuro-vegetative syndrome of the menopause (hot flashes, vulvar pruritus, vaginal diseases)","[4]; patients, menopause",84 % of the cases treated
same,patient's mental state,"[4]; patients, natural or surgical menopause",parallel improvement in the patient's mental state
same,clinical and biological tolerance,patients,excellent
same,"side effects including mammary congestion, galactorrhea, drowsiness, etc. (cases)",patients,less than 8 % of the cases
same,acceptability of the treatment,patients; po,perfect acceptability
same,general tolerance,patients; po,excellent general tolerance
same,"premature interruption of treatment, aversion or troublesome side effects",patients; po,In no case was the course of treatment interrupted prematurely
same,LD50,[5]; ip,320 mg/kg
same,LD50,[5]; iv,124 to 129 mg/kg
same,LD50,[5]; po,1300 mg/kg
same,LD50,[5]; sc,465 to 518 mg/kg
